From patent US20080153866A1, “Amorphous Taclolimus Solid Dispersion Having an Enhanced Solubility and Pharmaceutical Composition Comprising Same” (Hinmi Pharm Co., Ltd, priority 2005, published 2008)

Key:
[1] = cited from earlier work
[2] = Thermodynamic stability test (endothermic peak in DSC scan); format: physicochemical
Text: The mixture of Comparative Example 1, solid dispersion of Example 1 and crystalline taclolimus were each subjected to a thermodynamic stability test by examining the change in the endothermic peak in its DSC scan. The temperatures representing respective endothermic peaks are represented in Table 17, and the overall DSC results are shown in FIG. 1.

- Endothermic peak temperature [2]: 127.0 °C
SMILES: C=CC[C@@H]1/C=C(\C)C[C@H](C)C[C@H](OC)[C@H]2O[C@@](O)(C(=O)C(=O)N3CCCCC3C(=O)O[C@H](/C(C)=C/C3CC[C@@H](O)[C@H](OC)C3)[C@H](C)[C@@H](O)CC1=O)[C@H](C)C[C@@H]2OC (stereo partly drawn) [Taclolimus, (—)-(1R,9S,13R,14S,17R,18E,21S,23S,24R,25S,27R)-17-allyl-1,14-dihydroxy-12-[(E)-2-[(1R,3R,4R)-4-hydroxy-3-methoxycyclohexyl]-1-methylvinyl]-23,25-dimethoxy-13,19,21,27-tetramethyl-11,28-dioxa-4-azatricyclo[22.3.1.0^4.9]octacos-18-ene-2,3,10,16-tetrone hydrate]
- Solubility in organic solvents ([1]; organic solvents such as anhydrous ethanol): very soluble
- Solubility in water ([1]; water): insoluble in water
